Counter-ions that a name gives are not always drawn.
Target: T1, full length SGK1 (Homo sapiens, UniProt O00141)
T1 construct: 125 μM full length SGK1 (Life Technologies Part #PR7358A); purchased Life Technologies PR7358A
T1 sequence (O00141 1-431): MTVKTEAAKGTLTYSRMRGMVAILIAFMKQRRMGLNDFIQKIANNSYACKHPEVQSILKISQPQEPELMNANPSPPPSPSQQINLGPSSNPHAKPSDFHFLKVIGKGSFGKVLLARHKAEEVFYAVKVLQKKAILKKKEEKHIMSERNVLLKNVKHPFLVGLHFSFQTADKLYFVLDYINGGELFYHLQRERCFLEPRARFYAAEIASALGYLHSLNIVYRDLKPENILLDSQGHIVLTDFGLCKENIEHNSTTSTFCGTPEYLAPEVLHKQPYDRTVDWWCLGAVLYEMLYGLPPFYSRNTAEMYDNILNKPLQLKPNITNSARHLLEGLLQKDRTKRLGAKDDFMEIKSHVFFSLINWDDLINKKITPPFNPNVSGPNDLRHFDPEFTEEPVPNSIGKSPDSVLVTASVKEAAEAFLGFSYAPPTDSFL
Assay: SGK1 inhibition Assay A (Caliper LabChip electrophoretic separation of fluorescent peptide substrate and phosphorylated product)
Format: biochemical
Conditions: Assay A; 20 μM ATP, 40 min incubation; read-out: SGK1 IC50

IC50 | Structure (SMILES)
3 nM | CN(C)CCOc1cc(C(F)F)sc1C(=O)N[C@@H]1CCCN(c2cc(-c3ccc(C#N)nc3)n3ncnc(N)c23)C1 [Example 310, (R)-N-(1-(4-amino-7-(6-cyanopyridin-3-yl)pyrrolo[2,1-f] [1,2,4]triazin-5-yl)piperidin-3-yl)-5-(difluoromethyl)-3-(2-(dimethylamino)ethoxy)thiophene-2-carboxamide]
25 nM | CC(=O)N1CC=C(c2cc(N3CCC[C@@H](NC(=O)c4cccc(OCCN5CCOCC5)n4)C3)c3c(N)ncnn23)C1 [Example 700, (R)—N-(1-(7-(1-acetyl-2,5-dihydro-1H-pyrrol-3-yl)-4-aminopyrrolo[2,1-f][1,2,4]triazin-5-yl)piperidin-3-yl)-6-(2-morpholinoethoxy)picolinamide]
13 nM | COC(=O)N1CC=C(c2cc(N3CCC[C@@H](NC(=O)c4sc5ccccc5c4OCCN(C)C)C3)c3c(N)ncnn23)C1 [Example 661, Methyl (R)-3-(4-amino-5-(3-(3-(2-(dimethylamino)ethoxy)benzo[b]thiophene-2-carboxamido)piperidin-1-yl)pyrrolo[2,1-f][1,2,4]triazin-7-yl)-2,5-dihydro-1H-pyrrole-1-carboxylate]
103 nM | COc1cc(C(=O)N[C@@H]2CCCN(c3cc(C4=CN(S(C)(=O)=O)CC4)n4ncnc(N)c34)C2)ccn1 [Example 115, (R)—N-(1-(4-amino-7-(1-(methylsulfonyl)-4,5-dihydro-1H-pyrrol-3-yl)pyrrolo[2,1-f][1,2,4]triazin-5-yl)piperidin-3-yl)-2-methoxyisonicotinamide]
15 nM | Nc1ncnn2c(-c3ccc(=O)n(CC(F)F)c3)cc(N3CCC[C@@H](NC(=O)c4sc(Cl)cc4OCC(=O)N4CCCC4)C3)c12 [Example 422, (R)-N-(1-(4-amino-7-(1-(2,2-difluoroethyl)-6-oxo-1,6-dihydropyridin-3-yl)pyrrolo[2,1-f][1,2,4]triazin-5-yl)piperidin-3-yl)-5-chloro-3-(2-oxo-2-(pyrrolidin-1-yl)ethoxy) thiophene-2-carboxamide]
22 nM | CC(=O)N1CC=C(c2cc(N3CCC[C@@H](NC(=O)c4sc5ccncc5c4OCCN(C)C)C3)c3c(N)ncnn23)C1 [Example 669, (R)-N-(1-(7-(1-acetyl-2,5-dihydro-1H-pyrrol-3-yl)-4-aminopyrrolo[2,1-f][1,2,4]triazin-5-yl)piperidin-3-yl)-3-(2-(dimethylamino)ethoxy)thieno [3,2-c]pyridine-2-carboxamide]
17 nM | Nc1ncnn2c(-c3ccnc(F)c3)cc(N3CCC[C@@H](NC(=O)c4csc5ccccc45)C3)c12 [Example 159, (R)-N-(1-(4-amino-7-(2-fluoropyridin-4-yl)pyrrolo[2,1-f][1,2,4]triazin-5-yl)piperidin-3-yl)benzo[b]thiophene-3-carboxamide, TFA]
89 nM | CC(=O)N1CC=C(c2cc(N3CCC[C@@H](NC(=O)c4scnc4C)C3)c3c(N)ncnn23)C1 [Example 461, (R)-N-(1-(7-(1-acetyl-2,5-dihydro-1H-pyrrol-3-yl)-4-aminopyrrolo[2,1-f][1,2,4]triazin-5-yl)piperidin-3-yl)-4-methylthiazole-5-carboxamide]
10 nM | Nc1ncnn2c(C3=CCN(C(=O)C4CCOCC4)C3)cc(N3CCC[C@@H](NC(=O)c4ccc(Cl)s4)C3)c12 [Example 898, (R)-N-(1-(4-amino-7-(1-(tetrahydro-2H-pyran-4-carbony1)-2,5-dihydro-1H-pyrrol-3-yl)pyrrolo[2,1-f][1,2,4]triazin-5-y1)piperidin-3-y1)-5-chlorothiophene-2-carboxamide]
25 nM | NC(=O)c1ccc(-c2cc(N3CCC[C@@H](NC(=O)c4sc5ccccc5c4OC4CNC4)C3)c3c(N)ncnn23)cn1 [Example 675, (R)-5-(4-amino-5-(3-(3-(azetidin-3-yloxy)benzo[b]thiophene-2-carboxamido)piperidin-1-yl)pyrrolo[2,1-f][1,2,4]triazin-7-yl)picolinamide]

From patent publication US20260250290A1 (BRISTOL-MYERS SQUIBB COMPANY, priority 2023, published 2026)
